Source: ChEMBL document CHEMBL5154845, “Dual-acting antitumor agents targeting the A2A adenosine receptor and histone deacetylases: Design and synthesis of 4-(furan-2-yl)-1H-pyrazolo[3,4-d]pyrimidin-6-amine derivatives” (Eur J Med Chem, 2022)

Tests used:
[1] = Elimination rate constant in male ICR mouse at 20 mg/kg, po measured up to 24 hrs by LC-MS/MS analysis; type: ADME, organism-based; conditions: in vivo
[2] = Cmax in male ICR mouse at 20 mg/kg, po measured up to 24 hrs by LC-MS/MS analysis; type: ADME, organism-based; parameters: time < 24 hrs, dose 20 mg/kg, route po; conditions: in vivo
[3] = AUC (0 to t) in male ICR mouse at 20 mg/kg, po measured up to 24 hrs by LC-MS/MS analysis; type: ADME, organism-based; parameters: time < 24 hrs, dose 20 mg/kg, route po; conditions: in vivo
[4] = AUC (0 to t) in male ICR mouse at 5 mg/kg, iv measured up to 24 hrs by LC-MS/MS analysis; type: ADME, organism-based; parameters: time < 24 hrs, dose 5 mg/kg, route iv; conditions: in vivo
[5] = Mean residence time in male ICR mouse at 5 mg/kg, iv measured up to 24 hrs by LC-MS/MS analysis; type: ADME, organism-based; conditions: in vivo
[6] = Cmax in male ICR mouse at 20 mg/kg, ip measured up to 24 hrs by LC-MS/MS analysis; type: ADME, organism-based; parameters: time < 24 hrs, dose 20 mg/kg, route ip; conditions: in vivo
[7] = Clearance in male ICR mouse at 20 mg/kg, ip measured up to 24 hrs by LC-MS/MS analysis; type: ADME, organism-based; conditions: in vivo
[8] = target: T1, Protein deacetylase HDAC6 (Homo sapiens, UniProt Q9UBN7); test: Inhibition of HDAC6 (unknown origin) using trypsin and LGK(Ac)-AMC as substrates incubated for 1 hr and measured by fluorescence assay
T1 sequence (Q9UBN7 whole entry): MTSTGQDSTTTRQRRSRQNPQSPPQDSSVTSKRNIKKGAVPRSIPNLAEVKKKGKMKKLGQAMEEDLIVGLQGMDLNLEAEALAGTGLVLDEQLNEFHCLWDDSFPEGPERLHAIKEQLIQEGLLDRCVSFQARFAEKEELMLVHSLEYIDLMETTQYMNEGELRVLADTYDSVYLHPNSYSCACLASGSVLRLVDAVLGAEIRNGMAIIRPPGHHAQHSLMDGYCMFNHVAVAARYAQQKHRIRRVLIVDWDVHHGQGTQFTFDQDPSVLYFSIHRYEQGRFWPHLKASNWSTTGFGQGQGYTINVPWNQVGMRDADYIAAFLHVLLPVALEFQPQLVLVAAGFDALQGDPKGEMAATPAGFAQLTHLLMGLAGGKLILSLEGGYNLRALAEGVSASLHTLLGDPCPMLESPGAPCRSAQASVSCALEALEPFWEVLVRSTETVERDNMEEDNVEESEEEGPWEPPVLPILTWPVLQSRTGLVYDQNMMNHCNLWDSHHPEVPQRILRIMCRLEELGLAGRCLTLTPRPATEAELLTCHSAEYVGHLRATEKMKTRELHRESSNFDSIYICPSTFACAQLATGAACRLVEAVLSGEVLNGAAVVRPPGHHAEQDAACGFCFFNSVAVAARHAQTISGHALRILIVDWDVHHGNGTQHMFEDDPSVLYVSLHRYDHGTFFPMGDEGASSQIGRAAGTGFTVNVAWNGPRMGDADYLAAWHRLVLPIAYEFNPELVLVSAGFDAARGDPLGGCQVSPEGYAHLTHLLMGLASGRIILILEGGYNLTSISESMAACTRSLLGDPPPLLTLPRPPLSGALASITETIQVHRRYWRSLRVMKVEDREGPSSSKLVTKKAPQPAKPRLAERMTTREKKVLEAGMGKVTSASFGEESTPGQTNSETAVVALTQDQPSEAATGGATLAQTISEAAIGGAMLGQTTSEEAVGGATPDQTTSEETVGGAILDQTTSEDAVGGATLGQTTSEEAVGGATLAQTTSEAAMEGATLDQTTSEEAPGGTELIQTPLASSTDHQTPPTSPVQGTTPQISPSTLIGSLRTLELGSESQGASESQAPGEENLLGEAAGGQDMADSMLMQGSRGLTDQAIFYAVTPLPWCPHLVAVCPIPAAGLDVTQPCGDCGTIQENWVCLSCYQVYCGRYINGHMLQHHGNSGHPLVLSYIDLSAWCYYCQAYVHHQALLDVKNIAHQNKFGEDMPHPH

Histone deacetylase 8 = target: T2, Histone deacetylase 8 (Homo sapiens, UniProt Q9BY41); test: Inhibition of HDAC8 (unknown origin) using trypsin and LGK(Ac)-AMC as substrates incubated for 1 hr and measured by fluorescence assay
T2 sequence (Q9BY41 whole entry): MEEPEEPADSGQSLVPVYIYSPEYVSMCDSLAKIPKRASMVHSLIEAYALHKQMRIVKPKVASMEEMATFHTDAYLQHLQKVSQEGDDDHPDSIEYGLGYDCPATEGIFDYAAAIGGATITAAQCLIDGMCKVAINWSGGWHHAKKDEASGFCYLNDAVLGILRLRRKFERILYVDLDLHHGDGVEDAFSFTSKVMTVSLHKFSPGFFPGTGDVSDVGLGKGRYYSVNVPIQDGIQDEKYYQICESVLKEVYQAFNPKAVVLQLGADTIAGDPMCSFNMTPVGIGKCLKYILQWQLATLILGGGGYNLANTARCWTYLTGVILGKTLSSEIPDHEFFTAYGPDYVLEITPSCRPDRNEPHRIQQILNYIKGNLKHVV

MC-38 = test: Antitumor activity against mouse MC38 cells xenografted in C57 mouse assessed as tumor growth inhibition at 150 mg/kg, po administered once a day; type: functional; conditions: read-out: TGI

Nc1nc(-c2ccco2)c2cnn(CCc3ccc(C(=O)Nc4ccccc4N)cc3)c2n1
k el at 24 h [1]: 0.000108 s⁻¹ | Cmax [2]: 3420 ng/mL | AUC(0-t) at 24 h [3]: 3600 ng·h/mL | AUCt [4]: 2098 ng·h/mL | MRT [5]: 23.4 min | Cmax [6]: 8410 ng/mL | CL/F [7]: 33.5 mL/min/kg | IC50 [8]: > 10 µM | IC50 (Histone deacetylase 8): > 10 µM | inhibition in vivo at 150 mg/kg (MC-38): 26%
